Literature values in US20190167675A1, “METHODS AND COMPOSITIONS FOR APPETITE CONTROL AND WEIGHT MANAGEMENT” (SHANGHAI YAO YUAN BIOTECHNOLOGY CO., LTD., priority 2016, published 2019).
Read-outs that look alike come from different tables or passages of the source.

Key:
ASIC3 [1] = target: T1, ASIC3 (Homo sapiens, UniProt Q9UHC3); conditions: cited from earlier work
T1 sequence (Q9UHC3 1-531): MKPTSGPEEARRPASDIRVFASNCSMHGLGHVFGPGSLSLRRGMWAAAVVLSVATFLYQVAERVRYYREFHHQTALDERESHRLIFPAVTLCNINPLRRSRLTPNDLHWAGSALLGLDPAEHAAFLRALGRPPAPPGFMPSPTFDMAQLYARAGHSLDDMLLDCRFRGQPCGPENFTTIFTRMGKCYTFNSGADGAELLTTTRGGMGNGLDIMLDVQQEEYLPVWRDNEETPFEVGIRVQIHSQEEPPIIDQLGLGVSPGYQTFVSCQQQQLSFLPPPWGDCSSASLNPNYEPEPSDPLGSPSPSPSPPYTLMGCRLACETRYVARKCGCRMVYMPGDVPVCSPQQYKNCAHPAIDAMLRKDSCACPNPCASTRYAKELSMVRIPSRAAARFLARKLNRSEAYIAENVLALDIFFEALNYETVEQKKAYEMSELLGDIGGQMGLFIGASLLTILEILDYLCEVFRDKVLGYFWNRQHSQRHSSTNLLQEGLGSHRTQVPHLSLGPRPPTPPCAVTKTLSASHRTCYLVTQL

ASIC3 [2] = conditions: in vivo; cited from earlier work
ENaC [3] = target: T2, ENaC (Rattus norvegicus, UniProt P37089+P37090+P37091); conditions: rat AEC type II cells; cited from earlier work
T2 construct: amiloride-sensitive Na+ currents (via ENaC) in rat, dog, and pig AEC type II cells; endogenous in cells; host or cells: rat AEC type II cells
T2 sequence (P37089 1-698): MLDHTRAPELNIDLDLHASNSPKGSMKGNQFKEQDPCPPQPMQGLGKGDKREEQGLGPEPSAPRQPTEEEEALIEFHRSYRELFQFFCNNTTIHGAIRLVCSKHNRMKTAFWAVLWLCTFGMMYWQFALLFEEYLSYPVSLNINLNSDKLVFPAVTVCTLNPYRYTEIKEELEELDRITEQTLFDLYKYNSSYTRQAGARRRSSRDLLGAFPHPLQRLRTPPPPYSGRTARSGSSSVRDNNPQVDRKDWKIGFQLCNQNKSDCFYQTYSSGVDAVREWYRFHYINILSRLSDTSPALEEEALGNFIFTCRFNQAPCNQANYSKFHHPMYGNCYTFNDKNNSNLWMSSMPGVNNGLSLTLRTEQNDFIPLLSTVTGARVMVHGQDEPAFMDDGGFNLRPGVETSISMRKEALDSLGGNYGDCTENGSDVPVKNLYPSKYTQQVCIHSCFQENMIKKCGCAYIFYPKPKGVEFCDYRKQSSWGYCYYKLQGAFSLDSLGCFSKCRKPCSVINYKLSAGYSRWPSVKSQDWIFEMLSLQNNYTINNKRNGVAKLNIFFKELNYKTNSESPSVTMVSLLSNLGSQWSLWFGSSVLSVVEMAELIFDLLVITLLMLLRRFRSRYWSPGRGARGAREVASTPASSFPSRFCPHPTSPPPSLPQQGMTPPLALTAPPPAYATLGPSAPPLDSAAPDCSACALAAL
T2 sequence (P37090 1-638): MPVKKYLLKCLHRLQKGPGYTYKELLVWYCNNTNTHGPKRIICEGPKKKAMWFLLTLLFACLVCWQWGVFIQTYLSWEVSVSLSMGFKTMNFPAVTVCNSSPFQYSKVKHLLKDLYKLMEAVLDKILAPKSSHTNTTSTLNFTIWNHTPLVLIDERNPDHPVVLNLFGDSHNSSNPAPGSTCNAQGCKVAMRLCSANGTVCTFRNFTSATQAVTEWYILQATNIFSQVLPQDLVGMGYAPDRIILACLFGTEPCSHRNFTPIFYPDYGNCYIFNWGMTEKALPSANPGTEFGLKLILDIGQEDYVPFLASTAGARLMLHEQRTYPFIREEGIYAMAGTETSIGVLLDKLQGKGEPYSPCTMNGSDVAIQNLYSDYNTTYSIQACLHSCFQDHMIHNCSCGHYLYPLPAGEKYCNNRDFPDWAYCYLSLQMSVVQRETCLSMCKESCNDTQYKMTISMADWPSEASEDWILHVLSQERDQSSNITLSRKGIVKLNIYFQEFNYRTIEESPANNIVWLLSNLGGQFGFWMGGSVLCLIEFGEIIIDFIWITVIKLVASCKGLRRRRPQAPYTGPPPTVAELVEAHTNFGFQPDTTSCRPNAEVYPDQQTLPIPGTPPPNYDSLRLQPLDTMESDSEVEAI
T2 sequence (P37091 1-650): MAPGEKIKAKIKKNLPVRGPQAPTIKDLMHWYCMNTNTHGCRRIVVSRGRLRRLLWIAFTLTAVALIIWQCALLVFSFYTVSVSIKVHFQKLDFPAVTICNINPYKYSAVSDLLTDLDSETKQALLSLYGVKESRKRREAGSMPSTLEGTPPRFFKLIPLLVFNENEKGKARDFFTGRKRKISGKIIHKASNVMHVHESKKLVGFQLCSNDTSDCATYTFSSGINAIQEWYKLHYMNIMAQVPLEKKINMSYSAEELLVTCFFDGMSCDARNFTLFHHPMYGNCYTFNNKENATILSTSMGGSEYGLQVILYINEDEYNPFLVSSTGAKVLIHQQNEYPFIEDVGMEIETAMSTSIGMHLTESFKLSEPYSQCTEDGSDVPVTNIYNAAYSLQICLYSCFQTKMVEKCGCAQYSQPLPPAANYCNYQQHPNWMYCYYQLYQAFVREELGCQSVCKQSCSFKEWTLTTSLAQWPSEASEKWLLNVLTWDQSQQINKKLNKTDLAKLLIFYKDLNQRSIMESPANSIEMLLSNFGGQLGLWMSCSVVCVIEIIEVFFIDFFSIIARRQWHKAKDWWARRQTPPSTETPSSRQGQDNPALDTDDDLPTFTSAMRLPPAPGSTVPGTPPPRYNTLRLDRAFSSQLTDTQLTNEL

ENaC [4] = conditions: dog AEC type II cells; cited from earlier work
ENaC [5] = conditions: pig AEC type II cells; cited from earlier work

Compound	ASIC3 currents (ASIC3 [1])	pain related behavior (ASIC3 [2])	increase of amiloride-sensitive Na+ currents versus baseline (ENaC [3])	increase of amiloride-sensitive Na+ currents versus baseline (ENaC [4])	increase of amiloride-sensitive Na+ currents versus baseline (ENaC [5])
Cc1nc(NC(=N)N)nc2ccccc12 [GMQ, 2-guanidine-4-methylquinazoline]	induces persistent ASIC3 currents	induces pain related behavior			
AP301: ENaC activator; human TNF-α-derived cyclic peptide composed of 17 natural amino acids			about 9 fold	~13 fold	~16 fold
